Measurements: US4929741A, “Propiolophenone derivatives” (Hoffman-La Roche Inc., priority 1987, dated 1990)
Read-outs that look alike come from different tables or passages of the source.

Tests used:
[1] = Acute toxicity, single oral administration; details: mouse, in vivo, read-out: Toxicity LD 50
[2] = system: lesions of the mucous membrane of the stomach; assay: Ethanol test (mucosa-protective activity); assay type: in vivo; details: Rattus norvegicus; male rats, oral 30 min before absolute ethanol; dosage reducing number of lesions by 50%; read-out: Ethanol Test ID 50
Experimental: The experimental procedure described hereinafter was used to determine the mucosa-protective property:
The oral administration of absolute ethanol to male rats in a dosage of 1 ml per rat leads within 1 hour to bloody lesions of the mucous membrane of the stomach. Various dosages of the substances to be tested (suspended in 0.125% carboxymethycellulose) or of the vehicle alone (control) are administered to the rats orally (1 ml per rat) 30 minutes prior to the treatment with ethanol. One hour after the administration of the ethanol the animals are killed, their stomachs are investigated for the presence of lesions and the number and the total dimension of such lesions are determined. The ID50 is that dosage of a test substance which reduces by 50% the number of lesions in comparison to the control group. […]

gastric acid secretion = assay: Gastric acid secretion-inhibiting activity (pylorus ligation, Shay et al.); assay type: in vivo; details: Rattus norvegicus; male pylorus-ligated rats, intraduodenal, 5 h; 50% decrease of the secretion; read-out: Gastric acid secretion-inhibition, ID 50
Experimental: The test procedure described hereinafter was used to determine the gastric acid secretion-inhibiting activity:
The pylorus of male rats is ligated under slight ether narcosis in accordance with Shay et al., Gastroenterology 5. 43 (1945). The substances to be tested, suspended in 0.5% carboxymethylcellulose, are administered intraduodenally. Control animals are treated only with the vehicle. Five hours after the ligation the animals are killed, the volume and acidity of their gastric juice are determined and the values obtained are compared with those of control animals. The ID50 is that dosage of a test substance which brings about a 50% decrease of the secretion in comparison to the control animals. In the following Table there are given for a series of representative compounds of formula I and for two compounds of formula II the results of the testing with respect to their mucosa-protective activity ("ethanol test") and to their gastric acid secretion-inhibiting activity. Moreover, this Table contains data concerning the acute toxicity (LD50 in the case of single oral administration to mice).

[3] = single oral administration to mice

Row | Structure (SMILES) | LD50 [1, 3] [mg/kg] | ED50 [2] [mg/kg] | ED50 (gastric acid secretion) [mg/kg] | LD50 ([1]; po) [mg/kg]
1 | COC(=O)C#CC(=O)c1cc(OC)ccc1OC [H, methyl 3-(2,5-dimethoxybenzoyl)propiolate] | > 5000 | 2.2 |  | 
2 | CSc1ccc(C(=O)C#CCO)cc1 [Y, 4 hydroxy-1-[4-(methylthio)phenyl]-2-butyn-1-one] | 156 to 312 | 1 | 2.7 | 
3 | Cc1ccc(C(=O)C#CCO)cc1 [Q, 4-hydroxy-1-(4-methylphenyl)-2-butyn-1-one] | 80 to 156 | 1.5 |  | 
4 | O=C(O)C#CC(=O)c1ccc2c(c1)OCO2 [A, 3-[3,4-(Methylenedioxy)benzoyl]propiolic acid] | 625 to 1250 | 1.2 | 42 | 
5 | COc1ccc(C(=O)C#CCO)cc1 [T, 4-hydroxy-1-(4-methoxyphenyl)-2-butyn-1-one] | 40 to 80 | 1.2 |  | 
6 | COCCOCCOC(=O)C#CC(=O)c1ccc(OC)cc1 [G, 2-(2-methoxyethoxy)ethyl 3-(4-methoxybenzoyl)propiolate] | 1000 to 2000 | 2.1 |  | 
7 | COc1ccc(C(=O)C#CCO)c(OC)c1OC [X, 4-hydroxy-1-(2,3,4-trimethoxyphenyl)-2-butyn-1-one] | 156 to 312 | 0.8 | 4 | 
8 | O=C(C#CCO)c1ccc(F)cc1 [P, 1-(4-fluorophenyl)-4-hydroxy-2-butyn-1-one] | 80 to 156 | 0.9 |  | 
9 | COc1cc(C(=O)C#CC(=O)N(C)C)cc(OC)c1OC [O, N,N-dimethyl-3-(3,4,5-trimethoxybenzoyl)propiolamide] | 312 to 625 | 2.8 | 28 | 
10 | COC(=O)C#CC(=O)c1ccc(O)cc1 [E, methyl 3-(4-hydroxybenzoyl)propiolate] | 312 to 625 | 1.2 |  | 
11 | COc1ccc(C(=O)C#CC(=O)O)c(OC)c1OC [K, 3-(2,3,4-trimethoxybenzoyl)-propiolic acid] | 500 to 1000 | 3.4 |  | 
12 | COC(=O)C#CC(=O)c1cc(OC)c(OC)c(OC)c1 [N, methyl 3-(3,4,5-trimethoxybenzoyl)propiolate] | > 5000 | 4.2 | > 100 | 
13 | COc1ccc(C(=O)C#CC(=O)O)cc1 [C, 3-(4-methoxybenzoyl)propiolic acid] | 625 to 1250 | 1.4 |  | 
14 | CCOC(C)OCC#CC(=O)c1ccc(OC)c(OC)c1OC (stereo not shown) [W, 4-(1-ethoxyethoxy)-1-(2,3,4-trimethoxyphenyl)-2-butyn-1-one] | 312 to 625 | 0.8 | 9 | 
15 | COC(=O)C#CC(=O)c1ccc(F)cc1 [M, methyl 3-(4-fluorobenzoyl)propiolate] | 1250 to 2500 | 4.2 |  | 
16 | COC(=O)C#CC(O)c1ccc2c(c1)OCO2 (stereo not shown) [Aa, methyl 4-hydroxy-4-[3,4-(methylenedioxy)phenyl]-2-butynoate] | 312 to 625 | 1.4 |  | 
17 | COC(=O)C#CC(=O)c1ccc(OC)c(OC)c1OC [D, methyl 3-(2,3,4-trimethoxybenzoyl)propiolate] | 625 to 1250 | 2.1 |  | 
18 | COc1ccc(OC)c(C(=O)C#CC(=O)O)c1 [I, 3-(2,5-dimethoxybenzoyl)propiolic acid] | 625 to 1250 | 1.9 |  | 
19 | COc1cc(C(=O)C#CCO)cc(OC)c1OC [B, 4-hydroxy-1-(3,4,5-trimethoxyphenyl)-2-butyn-1-one] | 156 to 312 | 1.9 | 18 | 
20 | O=C(C#CCO)c1ccc(Cl)cc1 [S, 1-(4-chlorophenyl)-4-hydroxy-2-butyn-1-one] | 80 to 156 | 1.2 |  | 
21 | COc1cc(C(=O)C#CC(C)O)cc(OC)c1OC (stereo not shown) [V, 4-hydroxy-1-(3,4,5-trimethoxyphenyl)-2-pentyn-1-one] | 156 to 312 | 1.2 | 3.1 | 
22 | COc1cc(C(=O)C#CC(=O)O)cc(OC)c1OC [L, 3-(3,4,5-trimethoxybenzoyl)-propiolic acid] | 1000 to 2000 | 4.1 | 56 | 
23 | O=C(C#CCO)c1ccc2c(c1)OCO2 [U] |  | 1.1 |  | 80 to 156
24 | COCCOCCOC(=O)C#CC(O)c1cc(OC)c(OC)c(OC)c1 (stereo not shown) [Bb, 2-(2-methoxyethoxy)ethyl 4-hydroxy-4-(3,4,5-trimethoxyphenyl)-2-butynoate] | 625 to 1250 | 4 |  | 
25 | CCOC(C)OCC#CC(=O)c1ccc(F)cc1 (stereo not shown) [R, 4-(1-ethoxyethoxy)-1-(4-fluorophenyl)-2-butyn-1-one] | 80 to 156 | 1.4 |  | 
26 | COCCOCCOC(=O)C#CC(=O)c1cc(OC)c(OC)c(OC)c1 [F, 2-(2-methoxyethoxy)ethyl 3-(3,4,5-trimethoxybenzoyl)propiolate] | > 5000 | 2.9 |  | 
27 | COCCOCCOC(=O)C#CC(=O)c1ccc2c(c1)OCO2 [J, 2-(2-methoxyethoxy)ethyl 3-[3,4-(methylenedioxy)-benzoyl]propiolate] | 1250 to 2500 | 2.3 | > 100 | 
